Reference: patent publication US12122767B2, “Bicyclic heterocycles as FGFR inhibitors” (Incyte Corporation, priority 2019, dated 2024)

These molecules were tested against T1, FGFR3 enzyme (Millipore) (Homo sapiens, UniProt P22607) (assay: FGFR Enzymatic Assay (peptide phosphorylation, FRET)). Details: pre-incubated for 4 hours; ATP 140 μM, peptide 500 nM.
T1 construct: purchased Millipore
Format: biochemical
Description: The inhibitor potency of the exemplified compounds was measured in an enzyme assay that measures peptide phosphorylation using FRET measurements to detect product formation. Inhibitors were serially diluted in DMSO and a volume of 0.5 μL was transferred to the wells of a 384-well plate. For FGFR3, a 10 μL volume of FGFR3 enzyme (Millipore) diluted in assay buffer (50 mM HEPES, 10 mM MgCl2, 1 mM EGTA, 0.01% Tween-20, 5 mM DTT, pH 7.5) was added to the plate and pre-incubated for a time between 5-10 minutes and up to 4 hours. Appropriate controls (enzyme blank and enzyme with no inhibitor) were included on the plate. The assay was initiated by the addition of a 10 μL solution containing biotinylated EQEDEPEGDYFEWLE peptide substrate (SEQ ID NO: 1) and ATP (final concentrations of 500 nM and 140 μM respectively) in assay buffer to the wells. The plate was incubated at 25° C. for 1 hr. The reactions were ended with the addition of 10 μL/well of quench solution (50 mM Tris, 150 mM NaCl, 0.5 mg/mL BSA, pH 7.8; 30 mM EDTA with Perkin Elmer Lance Reagents at 3.75 nM Eu-antibody PY20 and 180 nM APC-Streptavidin). The plate was allowed to equilibrate for ˜1 hr before scanning the wells on a PheraStar plate reader (BMG Labtech).
GraphPad prism3 was used to analyze the data. The IC50 values were derived by fitting the data to the equation for a sigmoidal dose-response with a variable slope. Y=Bottom+(Top-Bottom)/(1+10^((Log IC50−X)*HillSlope)) where X is the logarithm of concentration and Y is the response.
Table 1 provides IC50 data for compounds of the invention assayed in the FGFR Enzymatic Assay after dilution in assay buffer, added to the plate and pre-incubated for 4 hours.

T1 sequence (P22607 23-806): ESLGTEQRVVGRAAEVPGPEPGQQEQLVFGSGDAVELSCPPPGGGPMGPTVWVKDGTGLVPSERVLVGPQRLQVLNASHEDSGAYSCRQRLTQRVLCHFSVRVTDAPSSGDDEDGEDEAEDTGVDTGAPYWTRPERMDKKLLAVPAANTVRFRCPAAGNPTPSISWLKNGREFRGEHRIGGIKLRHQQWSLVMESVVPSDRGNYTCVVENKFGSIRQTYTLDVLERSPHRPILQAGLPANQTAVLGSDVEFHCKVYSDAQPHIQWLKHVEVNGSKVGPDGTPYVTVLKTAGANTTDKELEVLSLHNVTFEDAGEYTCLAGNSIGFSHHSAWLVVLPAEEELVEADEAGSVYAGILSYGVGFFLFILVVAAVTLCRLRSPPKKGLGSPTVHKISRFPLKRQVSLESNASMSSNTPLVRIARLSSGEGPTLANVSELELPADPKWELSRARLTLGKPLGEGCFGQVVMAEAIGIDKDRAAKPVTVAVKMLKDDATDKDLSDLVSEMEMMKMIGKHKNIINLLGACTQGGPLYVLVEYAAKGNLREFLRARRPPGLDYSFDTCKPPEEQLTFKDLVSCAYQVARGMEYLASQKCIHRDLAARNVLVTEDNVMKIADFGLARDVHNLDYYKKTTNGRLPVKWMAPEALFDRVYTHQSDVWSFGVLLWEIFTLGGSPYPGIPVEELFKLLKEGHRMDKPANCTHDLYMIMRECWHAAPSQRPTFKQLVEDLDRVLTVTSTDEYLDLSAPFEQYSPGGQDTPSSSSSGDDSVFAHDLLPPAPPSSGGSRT

| IC50 [nM] | SMILES |
| --- | --- |
| < 10 | COc1cc2[nH]nc(-c3cnn(C4CCN(C(C)=O)CC4)c3)c2cc1C(=O)Nc1c(C)cccc1C [Example 25, 3-(1-(1-Acetylpiperidin-4-yl)-1H-pyrazol-4-yl)-N-(2,6-dimethylphenyl)-6-methoxy-1H-indazole-5-carboxamide] |
| ≥ 200 | Cc1cccc(F)c1NC(=O)c1cc2c(-c3cnn(C)c3)n[nH]c2cc1Cl [Example 15, 6-Chloro-N-(2-fluoro-6-methylphenyl)-3-(1-methyl-1H-pyrazol-4-yl)-1H-indazole-5-carboxamide] |
| < 10 | COC(=O)N1CC(n2cc(-c3n[nH]c4cc(OC)c(C(=O)Nc5c(C)cccc5C)cc34)cn2)C1 [Example 31, Methyl 3-(4-(5-((2,6-dimethylphenyl)carbamoyl)-6-methoxy-1H-indazol-3-yl)-1H-pyrazol-1-yl)azetidine-1-carboxylate] |
| < 10 | COc1cc2[nH]nc(-c3cnn(C4CC4)c3)c2cc1C(=O)Nc1c(C)cccc1C [Example 44, 3-(1-Cyclopropyl-1H-pyrazol-4-yl)-N-(2,6-dimethylphenyl)-6-methoxy-1H-indazole-5-carboxamide] |
| < 10 | COc1cc2[nH]nc(-c3cnn(C4CCC4)c3)c2cc1C(=O)Nc1c(F)cccc1Cl [Example 17, N-(2-Chloro-6-fluorophenyl)-3-(1-cyclobutyl-1H-pyrazol-4-yl)-6-methoxy-1H-indazole-5-carboxamide] |
| < 10 | CCc1cccc(CC)c1NC(=O)c1cc2c(-c3cnn(C)c3)n[nH]c2cc1OC [Example 7, N-(2,6-Diethylphenyl)-6-methoxy-3-(1-methyl-1H-pyrazol-4-yl)-1H-indazole-5-carboxamide] |
| 10 to 30 | CCNC(=O)Cn1cc(-c2n[nH]c3cc(OC)c(C(=O)Nc4c(C)cccc4C)cc23)cn1 [Example 19, N-(2,6-Dimethylphenyl)-3-(1-(2-(ethylamino)-2-oxoethyl)-1H-pyrazol-4-yl)-6-methoxy-1H-indazole-5-carboxamide] |
| 30 to 200 | COc1cc2[nH]nc(-c3cnn(C)c3)c2cc1C(=O)Nc1c(C)cc(NC(C)=O)cc1C [Example 28, N-(4-Acetamido-2,6-dimethylphenyl)-6-methoxy-3-(1-methyl-1H-pyrazol-4-yl)-1H-indazole-5-carboxamide] |
| < 10 | COc1cc2[nH]nc(-c3cnn(C4CCC4)c3)c2cc1C(=O)Nc1c(C)cccc1C [Example 43, 3-(1-Cyclobutyl-1H-pyrazol-4-yl)-N-(2,6-dimethylphenyl)-6-methoxy-1H-indazole-5-carboxamide] |
| 10 to 30 | COc1cc2[nH]nc(-c3cnn(CCO)c3)c2cc1C(=O)Nc1c(C)cccc1C [Example 38, N-(2,6-Dimethylphenyl)-3-(1-(2-hydroxyethyl)-1H-pyrazol-4-yl)-6-methoxy-1H-indazole-5-carboxamide] |
| < 10 | COc1cc2[nH]nc(-c3cnn(C)c3)c2cc1C(=O)Nc1c(C)cc(F)cc1C [Example 5, N-(4-Fluoro-2,6-dimethylphenyl)-6-methoxy-3-(1-methyl-1H-pyrazol-4-yl)-1H-indazole-5-carboxamide] |
| < 10 | COc1cc2[nH]nc(-c3cnn(C)c3)c2cc1C(=O)Nc1c(C)cccc1C [Example 1, N-(2,6-Dimethylphenyl)-6-methoxy-3-(1-methyl-1H-pyrazol-4-yl)-1H-indazole-5-carboxamide] |
| < 10 | COc1cc2[nH]nc(-c3cnn(C)c3)c2cc1C(=O)Nc1c(F)cccc1Cl [Example 2, N-(2-Chloro-6-fluorophenyl)-6-methoxy-3-(1-methyl-1H-pyrazol-4-yl)-1H-indazole-5-carboxamide] |
| < 10 | COc1cc2[nH]nc(-c3cnn(Cc4ccccn4)c3)c2cc1C(=O)Nc1c(C)cccc1C [Example 37, N-(2,6-Dimethylphenyl)-6-methoxy-3-(1-(pyridin-2-ylmethyl)-1H-pyrazol-4-yl)-1H-indazole-5-carboxamide] |
| < 10 | COc1cc2[nH]nc(-c3cnn(C)c3)c2cc1C(=O)Nc1c(C)cccc1C(F)(F)F [Example 4, 6-Methoxy-3-(1-methyl-1H-pyrazol-4-yl)-N-(2-methyl-6-(trifluoromethyl)phenyl)-1H-indazole-5-carboxamide] |
| < 10 | COc1cc2[nH]nc(-c3ccc(N4CCN(C)CC4)cc3)c2cc1C(=O)Nc1c(C)cccc1C [Example 21, N-(2,6-Dimethylphenyl)-6-methoxy-3-(4-(4-methylpiperazin-1-yl)phenyl)-1H-indazole-5-carboxamide] |

| IC50 [nM] | SMILES |
| --- | --- |
| ≥ 200 | Cc1cc2[nH]nc(-c3cnn(C)c3)c2cc1C(=O)Nc1c(C)cccc1F [Example 14, N-(2-Fluoro-6-methylphenyl)-6-methyl-3-(1-methyl-1H-pyrazol-4-yl)-1H-indazole-5-carboxamide] |
| < 10 | COc1cc2[nH]nc(-c3cnn(C4CCOCC4)c3)c2cc1C(=O)Nc1c(C)cccc1C [Example 35, N-(2,6-Dimethylphenyl)-6-methoxy-3-(1-(tetrahydro-2H-pyran-4-yl)-1H-pyrazol-4-yl)-1H-indazole-5-carboxamide] |
| 10 to 30 | COc1cc2[nH]nc(-c3cnn(C)c3)c2cc1C(=O)Nc1c(C)cc(NS(C)(=O)=O)cc1C [Example 27, N-(2,6-Dimethyl-4-(methylsulfonamido)phenyl)-6-methoxy-3-(1-methyl-1H-pyrazol-4-yl)-1H-indazole-5-carboxamide] |
| < 10 | CCc1cccc(C)c1NC(=O)c1cc2c(-c3cnn(C)c3)n[nH]c2cc1OC [Example 6, N-(2-Ethyl-6-methylphenyl)-6-methoxy-3-(1-methyl-1H-pyrazol-4-yl)-1H-indazole-5-carboxamide] |
| 10 to 30 | COc1cc2[nH]nc(-c3cnn(Cc4cccnc4)c3)c2cc1C(=O)Nc1c(C)cccc1C [Example 41, N-(2,6-Dimethylphenyl)-6-methoxy-3-(1-(pyridin-3-ylmethyl)-1H-pyrazol-4-yl)-1H-indazole-5-carboxamide] |
| < 10 | COc1cc2[nH]nc(-c3cnn(C4CN(C(=O)N(C)C)C4)c3)c2cc1C(=O)Nc1c(C)cccc1C [Example 22, 3-(1-(1-(Dimethylcarbamoyl)azetidin-3-yl)-1H-pyrazol-4-yl)-N-(2,6-dimethylphenyl)-6-methoxy-1H-indazole-5-carboxamide] |
| < 10 | COc1cc2[nH]nc(-c3ccc(N4CCN(C(C)=O)CC4)cc3)c2cc1C(=O)Nc1c(C)cccc1C [Example 20, 3-(4-(4-Acetylpiperazin-1-yl)phenyl)-N-(2,6-dimethylphenyl)-6-methoxy-1H-indazole-5-carboxamide] |
| ≥ 200 | Cc1cc2[nH]nc(-c3cnn(C)c3)c2cc1C(=O)Nc1c(C)cccc1C [Example 12, N-(2,6-Dimethylphenyl)-6-methyl-3-(1-methyl-1H-pyrazol-4-yl)-1H-indazole-5-carboxamide] |
| < 10 | COc1cc2[nH]nc(-c3cnn(C4CCOC4)c3)c2cc1C(=O)Nc1c(C)cccc1C (centres unmarked) [Example 36, N-(2,6-Dimethylphenyl)-6-methoxy-3-(1-(tetrahydrofuran-3-yl)-1H-pyrazol-4-yl)-1H-indazole-5-carboxamide] |
| 30 to 200 | COc1cc2[nH]nc(-c3cnn(C)c3)c2cc1C(=O)Nc1c(C)cc(N(C)C)cc1C [Example 29, N-(4-(Dimethylamino)-2,6-dimethylphenyl)-6-methoxy-3-(1-methyl-1H-pyrazol-4-yl)-1H-indazole-5-carboxamide] |
| < 10 | CCCn1cc(-c2n[nH]c3cc(OC)c(C(=O)Nc4c(C)cccc4C)cc23)cn1 [Example 45, N-(2,6-Dimethylphenyl)-6-methoxy-3-(1-propyl-1H-pyrazol-4-yl)-1H-indazole-5-carboxamide] |
| ≥ 200 | Cn1cc(-c2n[nH]c3cc(Cl)c(C(=O)Nc4c(F)cccc4Cl)cc23)cn1 [Example 16, 6-Chloro-N-(2-chloro-6-fluorophenyl)-3-(1-methyl-1H-pyrazol-4-yl)-1H-indazole-5-carboxamide] |
| < 10 | COc1cc2[nH]nc(-c3cnn(C4CN(S(C)(=O)=O)C4)c3)c2cc1C(=O)Nc1c(C)cccc1C [Example 32, N-(2,6-Dimethylphenyl)-6-methoxy-3-(1-(1-(methylsulfonyl)azetidin-3-yl)-1H-pyrazol-4-yl)-1H-indazole-5-carboxamide] |
| 10 to 30 | COc1cc2[nH]nc(-c3cnn(CCN4CCOCC4)c3)c2cc1C(=O)Nc1c(C)cccc1C [Example 40, N-(2,6-Dimethylphenyl)-6-methoxy-3-(1-(2-morpholinoethyl)-1H-pyrazol-4-yl)-1H-indazole-5-carboxamide] |
| < 10 | COc1cc2[nH]nc(-c3ccc(N4CCN(C)CC4)nc3)c2cc1C(=O)Nc1c(C)cccc1C [Example 26, N-(2,6-Dimethylphenyl)-6-methoxy-3-(6-(4-methylpiperazin-1-yl)pyridin-3-yl)-1H-indazole-5-carboxamide] |
| 10 to 30 | COc1cc2[nH]nc(-c3cnn(C4CC4)c3)c2cc1C(=O)Nc1c(F)cccc1Cl [Example 18, N-(2-Chloro-6-fluorophenyl)-3-(1-cyclopropyl-1H-pyrazol-4-yl)-6-methoxy-1H-indazole-5-carboxamide] |
